Assay results from US20170042890A1, “METHODS OF REDUCING DECLINE IN VITAL CAPACITY” (Cytokinetics, Inc., priority 2014, published 2017).

Tests used:
patients with ALS [1] = assay: BENEFIT-ALS clinical trial: slow vital capacity (SVC); assay type: in vivo, human
Protocol: (§1) BENEFIT-ALS was a multi-national, randomized, stratified, double-blind, placebo-controlled, parallel-group study of tirasemtiv in patients with ALS. The study consisted of a screening period, an open-label/lead-in period, and a double-blind treatment period. Following screening, eligible patients received open-label tirasemtiv, 125 mg BID, for 7 days. Patients who tolerated the 7-day lead-in period were randomized in a 1:1 ratio to tirasemtiv or placebo. Over the first 3 weeks of double-blind treatment, patients randomized to tirasemtiv had their TDD up-titrated as follows: 250 mg for 7 days, then 375 mg for 7 days, then 500 mg for 7 days. […] However, in such cases, dose escalation was re-attempted at least one additional time. The highest tolerable tirasemtiv dose for each individual patient was the dose that patient received for the remaining 9 weeks (i.e., the maximum tolerated dose [MTD] phase) of the study. Patients randomized to placebo underwent a corresponding dummy dose titration.
(§2) Randomization was stratified by riluzole use. […] Clinical assessments occurred every 4 weeks during double-blind treatment; patients also returned for follow-up evaluations at 1 and 4 weeks after their final dose of double-blind study medication (FIG. 1).
(§3) The secondary objectives included assessments of the effect of tirasemtiv versus placebo on measures of respiratory function (Maximum Voluntary Ventilation (MVV), Sniff Nasal Inspiratory Pressure (SNIP), SVC) and skeletal muscle function including handgrip fatigue and muscle-strength mega-score (i.e., the average z-score for muscle strength measurements across the following tested bilateral muscle groups: elbow flexion, wrist extension, knee extension, ankle dorsiflexion, and handgrip)). Secondary endpoints included the changes from baseline in each of the above mentioned measures (MVV, SNIP, SVC, and muscle-strength mega-score) for the Modified FAS, and the slope of each of the measures from baseline to Week 12 for the Modified FAS.
(§4) Eligible patients were males and females, 18 years of age and older, with a diagnosis of familial or sporadic ALS and meeting the World Federation of Neurology El Escorial criteria of definite ALS, probable ALS, laboratory-supported probable ALS, or possible ALS. Patients were to have an upright SVC>50% of predicted for age, height, and sex, a diminished, but measurable, maximum voluntary grip strength in at least one hand (i.e., between 10-50 pounds for females and 10-70 pounds for males), and at least 4 of the 12 ALSFRS-R questions were to have been scored as a 2 or 3. Patients were to be able to swallow tablets without crushing, and in the opinion of the investigator, were expected to do so for the duration of the study. If the patient needed a caregiver, the caregiver was to be able to observe the patient's status. Clinical laboratory results were to be either within their respective normal ranges or if outside the normal range, deemed not clinically significant by the investigator. […] Patients not taking riluzole prior to study entry were not permitted to take riluzole at any dose during the course of the study.
(§5) Safety data presented were based on the safety analysis set, defined as all patients who received at least 1 dose of double-blind study drug. Of the 605 randomized patients, 596 (295 placebo, 301 tirasemtiv) received at least 1 dose of double-blind study drug and were included in the safety analysis set. Data for the primary and secondary efficacy endpoints were analyzed with the Modified FAS. This analysis set included all patients who received at least 1 dose of double-blind study drug and had at least 1 efficacy assessment during the double-blind treatment period, and excluded 156 patients who were randomized in blocks containing patients affected by a study drug assignment error in which 58 patients randomized to and treated with double-blind tirasemtiv were dispensed double-blind placebo instead. […]

[2] = system: muscle contraction / grip strength; conditions: cited from earlier work
patients with ALS [3] = assay: BENEFIT-ALS clinical trial: Sniff Nasal Inspiratory Pressure (SNIP); assay type: in vivo, human
Protocol: as §1, §2, §3, §4, §5

cardiac muscle troponin = conditions: cited from earlier work

C#Cc1cnc2nc(O)n(C(CC)CC)c2n1 [Tirasemtiv, 6-ethynyl-1-(pentan-3-yl)-1H-imidazo[4,5-b]pyrazin-2(3H)one]
SVC slope of changes from baseline to Week 12 (patients with ALS [1]; Modified FAS N=178): −0.0394 | SVC change from baseline (LS mean) (patients with ALS [1]; Week 4, Modified FAS N=178): −0.99 % predicted | SVC change from baseline (LS mean) (patients with ALS [1]; Week 8, Modified FAS N=178): −2.85 % predicted | SVC change from baseline (LS mean) (patients with ALS [1]; Week 12, Modified FAS N=178): −3.12 % predicted | SVC change from baseline (LS mean), post-treatment (patients with ALS [1]; Week 13, 1 week after last dose of double-blind study drug): −3.75 % predicted | SVC change from baseline (LS mean), post-treatment (patients with ALS [1]; Week 16, 4 weeks after last dose of double-blind study drug): −5.39 % predicted | LS mean±SE change from baseline in SVC (patients with ALS [1]; after 12 weeks of treatment): −3.12% | SVC difference in slope (tirasemtiv vs placebo) (patients with ALS [1]; baseline to Week 12, p=0.0006): 0.051 | Treatment difference in change from baseline to average SVC after 8 and 12 weeks (patients with ALS [1]; subgroup: baseline SVC>median at baseline, p<0.0001): 6.02% | Treatment difference in change from baseline to average SVC after 8 and 12 weeks (patients with ALS [1]; subgroup: females, p=0.012): 6.84% | Treatment difference in change from baseline to average SVC after 8 and 12 weeks (patients with ALS [1]; subgroup: non-riluzole users, p=0.0005): 6.55% | Effect on decline of SVC, in words (patients with ALS [1]; versus placebo): statistically significant and potentially clinically meaningful reduction in the decline of SVC | Grip strength ([2]; preclinical models of limited neuromuscular input): increased grip strength | Force of muscle contraction ([2]; submaximal nerve stimulation frequencies): increased the force of muscle contraction | SNIP slope from baseline to Week 12 (patients with ALS [3]; Modified FAS N=178): −0.053 | SNIP change from baseline (LS mean) (patients with ALS [3]; Week 4, Modified FAS N=178): −4.33 cm H2O | SNIP change from baseline (LS mean) (patients with ALS [3]; Week 8, Modified FAS N=178): −3.55 cm H2O | SNIP change from baseline (LS mean) (patients with ALS [3]; Week 12, Modified FAS N=178): −5.03 cm H2O | SNIP versus placebo, in words (patients with ALS [3]; p=0.012 and 0.050): statistically significantly greater decrease in SNIP at Weeks 4 and 8 | SNIP difference in slope (tirasemtiv vs placebo) (patients with ALS [3]; p=0.2108): −0.0312 | Effect on cardiac muscle troponin (cardiac muscle troponin): no effect
